Where two headings read alike, the source gives them in different places.
Target: PDE9 (Homo sapiens, UniProt O76083)
Experiment: PDE9 inhibition assay
Type: biochemical
Method: Reactions are initiated by addition of the cyclic nucleotide substrate, and reactions are allowed to proceed for one hr at room temperature before being terminated through mixing with 15 uL 8 mg/mL yttrium silicate SPA beads (Amersham). […] IC50 values were calculated by non linear regression using XLfit (IDBS).

[1] = SPA assay, 10 nM 3H-cAMP, 1 hour incubation, read-out: IC50

Chain of PDE9 (O76083 whole entry): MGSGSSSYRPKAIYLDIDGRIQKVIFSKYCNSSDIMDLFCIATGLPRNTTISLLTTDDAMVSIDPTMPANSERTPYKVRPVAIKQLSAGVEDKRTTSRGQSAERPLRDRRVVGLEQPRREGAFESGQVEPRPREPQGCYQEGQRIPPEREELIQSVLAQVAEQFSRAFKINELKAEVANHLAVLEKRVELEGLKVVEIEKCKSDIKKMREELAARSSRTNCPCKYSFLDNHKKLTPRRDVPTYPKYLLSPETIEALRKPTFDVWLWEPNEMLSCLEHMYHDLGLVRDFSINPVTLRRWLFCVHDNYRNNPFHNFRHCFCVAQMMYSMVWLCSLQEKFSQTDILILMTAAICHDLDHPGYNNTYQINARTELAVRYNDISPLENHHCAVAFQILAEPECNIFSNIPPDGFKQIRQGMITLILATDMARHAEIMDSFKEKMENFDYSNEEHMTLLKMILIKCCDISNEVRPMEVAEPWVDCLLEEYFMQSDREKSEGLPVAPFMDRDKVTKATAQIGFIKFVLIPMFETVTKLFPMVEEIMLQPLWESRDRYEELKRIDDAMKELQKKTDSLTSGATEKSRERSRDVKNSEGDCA

SMILES	IC50 [1] [nM]	IC50 [nM]
N#Cc1ccc(C2CN(Cc3cn4c(C5CCOCC5)ncc4c(=O)[nH]3)C2)cc1 [Compound 106, 4-[1-[(8-oxo-3-tetrahydropyran-4-yl-7h-imidazo[1,5-a]pyrazin-6-yl)methyl]azetidin-3-yl]benzonitrile]	32	
CC1CN(Cc2ccc(F)cc2)CC1c1cn2c(C3CCOCC3)ncc2c(=O)[nH]1 (centres unmarked) [Compound 89, 6-[1-[(4-fluorophenyl)methyl]-4-methyl-pyrrolidin-3-yl]-3-tetrahydropyran-4-yl-7h-imidazo[1,5-a]pyrazin-8-one]	7	
COC1CN(C(C)C2(C)Cn3c(cnc3C3CCOCC3)C(=O)N2)C1 (centres unmarked) [Compound 112, 6-[1-(3-methoxyazetidin-1-yl)ethyl]-6-methyl-3-tetrahydropyran-4-yl-7h-imidazo[1,5-a]pyrazin-8-one]	22	
O=c1[nH]c(CN2CC(Oc3cccc(F)n3)C2)cn2c(-c3ccccc3)ncc12 [Compound 6, 6-[[3-[(6-fluoro-2-pyridyl)oxy]azetidin-1-yl]methyl]-3-phenyl-7h-imidazo[1,5-a]pyrazin-8-one]	31	
CCc1ccc(C2CN(Cc3cn4c(C5CCOCC5)ncc4c(=O)[nH]3)C2)cc1 [Compound 78, 6-[[3-(4-ethylphenyl)azetidin-1-yl]methyl]-3-tetrahydropyran-4-yl-7h-imidazo[1,5-a]pyrazin-8-one]	6	
O=c1[nH]c(CN2CC(Oc3cnccn3)C2)cn2c(-c3ccc(F)cc3)ncc12 [Compound 55, 3-(4-fluorophenyl)-6-[(3-pyrazin-2-yloxyazetidin-1-yl)methyl]-7h-imidazo[1,5-a]pyrazin-8-one]	9	
N#Cc1ccc(OC2CN(Cc3cn4c(-c5ccc(F)cc5)ncc4c(=O)[nH]3)C2)cc1 [Compound 92, 4-[1-[[3-(4-fluorophenyl)-8-oxo-7h-imidazo[1,5-a]pyrazin-6-yl]methyl]azetidin-3-yl]oxybenzonitrile]		76
CC(c1cn2c(-c3ccc(F)cc3)ncc2c(=O)[nH]1)N1CC(c2ccc(F)cc2)C1 (centres unmarked) [Compound 124, 3-(4-fluorophenyl)-6-[1-[3-(4-fluorophenyl)azetidin-1-yl]ethyl]-7h-imidazo[1,5-a]pyrazin-8-one]	72	
CCC(c1cn2c(-c3ccccc3)ncc2c(=O)[nH]1)N1CC(c2ccc(F)cc2)C1 (centres unmarked) [Compound 12, 6-[1-[3-(4-fluorophenyl)azetidin-1-yl]propyl]-3-phenyl-7h-imidazo[1,5-a]pyrazin-8-one]	19	
COc1ccc(C2CN(C(C)c3cn4c(-c5ccccc5)ncc4c(=O)[nH]3)C2)cc1 (centres unmarked) [Compound 34, 6-[1-[3-(4-methoxyphenyl)azetidin-1-yl]ethyl]-3-phenyl-7h-imidazo[1,5-a]pyrazin-8-one]	66	
COc1ccc(C2CN(Cc3cn4c(C5CCOCC5)ncc4c(=O)[nH]3)C2)cc1 [Compound 69, 6-[[3-(4-methoxyphenyl)azetidin-1-yl]methyl]-3-tetrahydropyran-4-yl-7h-imidazo[1,5-a]pyrazin-8-one]		30

Source: patent US9643970B2, “Substituted imidazo [1,5-a]pyrazines as PDE9 inhibitors” (H Lundbeck A/S, priority 2012, dated 2017)
